In ChEMBL document CHEMBL3046207, “Synthesis of a new series of 2-(2-oxo-2H-chromen-3-yl)-5H-chromeno[4,3-b]pyridin-5-ones by two facile methods and evaluation of their antimicrobial activity” (2013) one finds MIC data, which are given here for 16 compounds.

≈ marks a conversion by molar mass, not a printed value. Bounds are passed on as bounds.

The test system of one test is Candida albicans. In words: Antifungal activity against Candida albicans MTCC 227 by broth dilution method. The class given is functional. A general note: In broth dilution the organism is exposed to a series of concentrations in liquid medium.
The next test concerns Escherichia coli. Put plainly: Antibacterial activity against Escherichia coli MTCC 443 by broth dilution method. The class given is functional.
In the next test the test system is Salmonella typhimurium. Put plainly: Antibacterial activity against Salmonella enterica typhimurium MTCC 98 by broth dilution method. The format is functional, Salmonella enterica subsp. enterica serovar Typhimurium.
A further test concerns Bacillus subtilis. Put plainly: Antibacterial activity against Bacillus subtilis MTCC 441 by broth dilution method. The format is functional.
For another test, the system named is Aspergillus niger. In words: Antifungal activity against Aspergillus niger MTCC 282 by broth dilution method. The format is functional.
For another test, the system named is Staphylococcus aureus. Put plainly: Antibacterial activity against Staphylococcus aureus MTCC 96 by broth dilution method. The class given is functional.

Turning to `O=c1oc2ccccc2cc1-c1ccc2c(=O)oc3ccc(Cl)cc3c2n1`, the minimum inhibitory concentration (MIC) in the test with Candida albicans was > 1000 µg/mL; in the test on Escherichia coli, 125 µg/mL (≈ 333 µM); with Salmonella typhimurium, 100 µg/mL (≈ 266 µM); with Bacillus subtilis, 200 µg/mL (≈ 532 µM); against Aspergillus niger, > 1000 µg/mL; in the test on Staphylococcus aureus, 125 µg/mL (≈ 333 µM).
Take `Cc1ccc2oc(=O)c3ccc(-c4cc5ccccc5oc4=O)nc3c2c1`: the MIC against Candida albicans is 500 µg/mL (≈ 1410 µM); against Escherichia coli, 125 µg/mL (≈ 352 µM); in the test with Salmonella typhimurium, 125 µg/mL (≈ 352 µM); with Bacillus subtilis it was 200 µg/mL (≈ 563 µM); against Aspergillus niger it was > 1000 µg/mL; against Staphylococcus aureus it was 250 µg/mL (≈ 704 µM).
For the compound `Cc1ccc2oc(=O)c3ccc(-c4cc5c(ccc6ccccc65)oc4=O)nc3c2c1`, the MIC is 1000 µg/mL (≈ 2470 µM) against Candida albicans; 250 µg/mL (≈ 617 µM) against Escherichia coli; 250 µg/mL (≈ 617 µM) with Salmonella typhimurium; 200 µg/mL (≈ 493 µM) with Bacillus subtilis; 500 µg/mL (≈ 1230 µM) against Aspergillus niger; 62.5 µg/mL (≈ 154 µM) with Staphylococcus aureus.
Regarding `CCn1cc(C(=O)O)c(=O)c2cc(F)c(N3CCNCC3)cc21` [NORFLOXACIN], the minimum inhibitory concentration (MIC) came out at 10 µg/mL (≈ 31.3 µM) against Escherichia coli, 10 µg/mL (≈ 31.3 µM) in the test on Salmonella typhimurium, 100 µg/mL (≈ 313 µM) against Bacillus subtilis and 10 µg/mL (≈ 31.3 µM) against Staphylococcus aureus.
NYSTATIN: the MIC in the test on Candida albicans and against Aspergillus niger was 100 µg/mL in each case.
As for `COc1cccc2cc(-c3ccc4c(=O)oc5ccc(C)cc5c4n3)c(=O)oc12`, the MIC against Candida albicans was found to be 1000 µg/mL (≈ 2590 µM); against Escherichia coli it was 250 µg/mL (≈ 649 µM); with Salmonella typhimurium it was 200 µg/mL (≈ 519 µM); against Bacillus subtilis, 62.5 µg/mL (≈ 162 µM); against Aspergillus niger it was 500 µg/mL (≈ 1300 µM); in the test with Staphylococcus aureus it was 100 µg/mL (≈ 259 µM).
In the case of `COc1cccc2cc(-c3ccc4c(=O)oc5ccc(Cl)cc5c4n3)c(=O)oc12`, the MIC in the test on Candida albicans is > 1000 µg/mL; against Escherichia coli it was 200 µg/mL (≈ 493 µM); in the test on Salmonella typhimurium, 250 µg/mL (≈ 616 µM); in the test on Bacillus subtilis it was 62.5 µg/mL (≈ 154 µM); in the test on Aspergillus niger it was 500 µg/mL (≈ 1230 µM); with Staphylococcus aureus it was 200 µg/mL (≈ 493 µM).
In the case of `O=c1oc2ccc3ccccc3c2cc1-c1ccc2c(=O)oc3ccc(Cl)cc3c2n1`, the MIC against Candida albicans is 500 µg/mL (≈ 1170 µM); in the test with Escherichia coli it was 62.5 µg/mL (≈ 147 µM); against Salmonella typhimurium it was 100 µg/mL (≈ 235 µM); with Bacillus subtilis, 200 µg/mL (≈ 470 µM); in the test with Aspergillus niger, 1000 µg/mL (≈ 2350 µM); in the test with Staphylococcus aureus, 62.5 µg/mL (≈ 147 µM).
Consider `COc1cccc2cc(-c3ccc4c(=O)oc5ccccc5c4n3)c(=O)oc12`, for which the minimal inhibitory concentration (MIC) worked out at 1000 µg/mL (≈ 2690 µM) in the test with Candida albicans; 200 µg/mL (≈ 539 µM) with Escherichia coli; 250 µg/mL (≈ 673 µM) against Salmonella typhimurium; 200 µg/mL (≈ 539 µM) against Bacillus subtilis; 1000 µg/mL (≈ 2690 µM) against Aspergillus niger; 100 µg/mL (≈ 269 µM) with Staphylococcus aureus.
For `O=c1oc2ccc3ccccc3c2cc1-c1ccc2c(=O)oc3ccccc3c2n1`, the minimum inhibitory concentration (MIC) in the test with Candida albicans was 250 µg/mL (≈ 639 µM); in the test with Escherichia coli, 250 µg/mL (≈ 639 µM); in the test with Salmonella typhimurium, 200 µg/mL (≈ 511 µM); in the test on Bacillus subtilis it was 125 µg/mL (≈ 319 µM); against Aspergillus niger, > 1000 µg/mL; in the test with Staphylococcus aureus it was 100 µg/mL (≈ 256 µM).
For the compound `COC1=CC(=O)C[C@@H](C)[C@]12Oc1c(Cl)c(OC)cc(OC)c1C2=O` [GRISEOFULVIN], the minimum inhibitory concentration (MIC) amounted to 500 µg/mL (≈ 1420 µM) against Candida albicans and 100 µg/mL (≈ 283 µM) in the test on Aspergillus niger.
In the case of `Cc1cccc2c1oc(=O)c1ccc(-c3cc4c(ccc5ccccc54)oc3=O)nc12`, the minimum inhibitory concentration (MIC) in the test on Candida albicans is 1000 µg/mL (≈ 2470 µM); against Escherichia coli it was 62.5 µg/mL (≈ 154 µM); with Salmonella typhimurium it was 100 µg/mL (≈ 247 µM); against Bacillus subtilis, 125 µg/mL (≈ 308 µM); against Aspergillus niger, > 1000 µg/mL; against Staphylococcus aureus, 100 µg/mL (≈ 247 µM).
As to `CC1(C)S[C@@H]2[C@H](NC(=O)[C@H](N)c3ccccc3)C(=O)N2[C@H]1C(=O)O` [AMPICILLIN], the MIC came out at 100 µg/mL (≈ 286 µM) in the test on Escherichia coli, 100 µg/mL (≈ 286 µM) with Salmonella typhimurium, 250 µg/mL (≈ 715 µM) against Bacillus subtilis and 250 µg/mL (≈ 715 µM) against Staphylococcus aureus.
Consider `COc1cccc2cc(-c3ccc4c(=O)oc5c(C)cccc5c4n3)c(=O)oc12`, for which the MIC in the test with Candida albicans was 200 µg/mL (≈ 519 µM); in the test on Escherichia coli, 250 µg/mL (≈ 649 µM); with Salmonella typhimurium, 250 µg/mL (≈ 649 µM); against Bacillus subtilis, 125 µg/mL (≈ 324 µM); in the test on Aspergillus niger, > 1000 µg/mL; in the test on Staphylococcus aureus, 250 µg/mL (≈ 649 µM).
Consider `Cc1cccc2c1oc(=O)c1ccc(-c3cc4ccccc4oc3=O)nc12`, for which the minimal inhibitory concentration (MIC) against Candida albicans is 500 µg/mL (≈ 1410 µM); against Escherichia coli, 200 µg/mL (≈ 563 µM); in the test on Salmonella typhimurium, 250 µg/mL (≈ 704 µM); with Bacillus subtilis, 250 µg/mL (≈ 704 µM); against Aspergillus niger, > 1000 µg/mL; against Staphylococcus aureus, 200 µg/mL (≈ 563 µM).
Take `O=c1oc2ccccc2cc1-c1ccc2c(=O)oc3ccccc3c2n1`: the MIC worked out at 1000 µg/mL (≈ 2930 µM) against Candida albicans; 125 µg/mL (≈ 366 µM) against Escherichia coli; 200 µg/mL (≈ 586 µM) in the test on Salmonella typhimurium; 250 µg/mL (≈ 732 µM) in the test with Bacillus subtilis; 500 µg/mL (≈ 1460 µM) in the test with Aspergillus niger; 200 µg/mL (≈ 586 µM) with Staphylococcus aureus.

For orientation: MIC means the lowest concentration that inhibits growth of the organism. Read a high MIC as weaker potency.
